From article PMC8533333, “Melatonin Analogues Potently Inhibit MAO-B and Protect PC12 Cells against Oxidative Stress” (Antioxidants, 2021)

Experiments:
[1] = target: T1, Human recombinant MAO-B (hMAO-B) (Homo sapiens, UniProt P27338); assay: MAO-B enzyme assay (Amplex Red, resorufin fluorescence); type: biochemical; conditions: for inhibition at 10 µM: single dose 10 µM; for Selectivity Index (SI): IC50 (MAO-A)/IC50 (MAO-B); for IC50: five doses 10-0.001 µM, triplicate
T1 construct: purchased Sigma Aldrich; host or cells: insect cells
T1 sequence (P27338 1-520): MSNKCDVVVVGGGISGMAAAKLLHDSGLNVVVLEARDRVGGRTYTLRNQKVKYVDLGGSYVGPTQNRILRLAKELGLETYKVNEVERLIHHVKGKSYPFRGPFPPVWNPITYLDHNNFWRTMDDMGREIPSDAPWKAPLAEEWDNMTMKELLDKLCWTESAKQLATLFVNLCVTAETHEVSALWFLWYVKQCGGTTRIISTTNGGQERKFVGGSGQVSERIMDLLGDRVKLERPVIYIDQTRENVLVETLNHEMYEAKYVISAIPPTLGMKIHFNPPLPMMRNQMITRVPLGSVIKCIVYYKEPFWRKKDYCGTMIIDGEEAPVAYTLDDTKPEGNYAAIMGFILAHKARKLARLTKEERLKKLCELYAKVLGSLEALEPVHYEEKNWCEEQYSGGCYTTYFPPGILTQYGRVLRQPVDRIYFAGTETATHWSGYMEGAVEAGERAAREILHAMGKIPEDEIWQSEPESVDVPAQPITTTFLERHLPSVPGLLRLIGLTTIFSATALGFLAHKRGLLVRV
Method: (§1) Biological evaluation of the synthesized melatonin derivatives over both MAO-A and MAO-B was performed as reported previously. A detailed description of the protocol is in the Supplementary Materials.
First, the synthesized melatonin analogues (3a–x) were biologically evaluated over an MAO-B recombinant enzyme. The experiment was performed using Amplex® Red reagent technology. This technology offers quantitative enzyme activity sensitive detection, a wider dynamic range, and fluorescence emission outside the range of compound autofluorescence (if any). The Amplex® Red reagent is a colorless substrate that reacts with H2O2 in a 1:1 stoichiometry to produce a highly fluorescent resorufin; therefore, the induced inhibitory effects of the melatonin analogues over MAO-B were examined via spectrophotometry where the fluorescence rate of resorufin dye formation was measured.
Accordingly, compounds 3n, 3r, and 3u–w were further tested to determine their IC50 values over MAO-B in triplicate from the dose–response inhibition curves using Sigma-Plot software 13.0.
(§2) 6. Materials and methods of monoamine oxidase (MAO) enzyme assay
The inhibitory activity of MAO-A, B enzyme of the compounds was evaluated based on previously described method. The MAO activity was measured in relative fluorescence units (RFU) evoked by peroxidase-catalyzed oxidation of Amplex Red® to resorufin, in which H2O2 generated by MAO reaction was used as the […]. Human recombinant MAO-A (hMAO-A) and MAO-B (hMAO-B) enzyme expressed in insect cells were obtained from Sigma Aldrich. The 2 μL of test compound in DMSO (final concentration: 1 nM – 10 μM) was treated with 98 μL of hMAO enzyme solution in 50 mM sodium phosphate buffer (pH 7.4, final protein amounts: ~1.25 μg protein/well for MAO-A and ~2.5 μg protein/well for MAO -B) on 96-well black plate and incubated for 15 min at 37 °C. Then 100 μL of reaction working solution which is mixed solution of 400 μM Amplex Red® (Cayman, final concentration: 200 μM), 2 U/mL horseradish peroxidase ( Sigma-Aldrich, final concentration: 1 U/mL) and 2 mM substrate ( p-tyramine for MAO -A, benzylamine for MAO -B, Sigma-Aldrich, final concentration: 1 mM) in 50 mM sodium phosphate buffer (pH 7.4) were added and incubated for 20 min at 37 °C in the dark. The fluorescent intensity was quantified using a microplate reader (SpectraMax®i3, Molecular Device) with an excitation at 545 nm and an emission at 590 nm. The 50% inhibitory concentrations (IC50) of compounds were determined as the mean ± S.E.M. in triplicate from the dose-response inhibition curves using SigmaPlot® 13.0. […]

[2] = target: T2, Human recombinant MAO-A (hMAO-A) (Homo sapiens, UniProt P21397); assay: MAO-A enzyme assay (Amplex Red), selectivity; type: biochemical
T2 construct: purchased Sigma Aldrich; host or cells: insect cells
T2 sequence (P21397 1-527): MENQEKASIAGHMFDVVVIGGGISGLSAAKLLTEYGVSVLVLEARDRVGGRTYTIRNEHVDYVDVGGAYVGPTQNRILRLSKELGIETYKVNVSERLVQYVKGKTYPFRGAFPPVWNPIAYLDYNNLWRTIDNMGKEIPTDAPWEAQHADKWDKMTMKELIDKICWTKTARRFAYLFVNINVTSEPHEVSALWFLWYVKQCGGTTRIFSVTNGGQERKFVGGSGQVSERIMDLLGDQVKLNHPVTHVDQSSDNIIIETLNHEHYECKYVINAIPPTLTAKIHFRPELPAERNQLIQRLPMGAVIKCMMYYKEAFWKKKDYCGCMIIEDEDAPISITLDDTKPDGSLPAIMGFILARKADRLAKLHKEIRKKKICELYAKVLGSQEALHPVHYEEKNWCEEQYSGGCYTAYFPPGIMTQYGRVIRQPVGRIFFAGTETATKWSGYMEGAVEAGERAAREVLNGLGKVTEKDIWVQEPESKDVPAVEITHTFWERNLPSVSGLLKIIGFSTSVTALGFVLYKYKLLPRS
Method: as §1, §2
The inhibitory activity of MAO-A, B enzyme of the compounds was evaluated based on previously described method. The MAO activity was measured in relative fluorescence units (RFU) evoked by peroxidase-catalyzed oxidation of Amplex Red® to resorufin, in which H2O2 generated by MAO reaction was used as the […]. Human recombinant MAO-A (hMAO-A) and MAO-B (hMAO-B) enzyme expressed in insect cells were obtained from Sigma Aldrich. The 2 μL of test compound in DMSO (final concentration: 1 nM – 10 μM) was treated with 98 μL of hMAO enzyme solution in 50 mM sodium phosphate buffer (pH 7.4, final protein amounts: ~1.25 μg protein/well for MAO-A and ~2.5 μg protein/well for MAO -B) on 96-well black plate and incubated for 15 min at 37 °C. Then 100 μL of reaction working solution which is mixed solution of 400 μM Amplex Red® (Cayman, final concentration: 200 μM), 2 U/mL horseradish peroxidase ( Sigma-Aldrich, final concentration: 1 U/mL) and 2 mM substrate ( p-tyramine for MAO -A, benzylamine for MAO -B, Sigma-Aldrich, final concentration: 1 mM) in 50 mM sodium phosphate buffer (pH 7.4) were added and incubated for 20 min at 37 °C in the dark. The fluorescent intensity was quantified using a microplate reader (SpectraMax®i3, Molecular Device) with an excitation at 545 nm and an emission at 590 nm. The 50% inhibitory concentrations (IC50) of compounds were determined as the mean ± S.E.M. in triplicate from the dose-response inhibition curves using SigmaPlot® 13.0.
monoamine oxidase inhibitors. Bioorganic & medicinal chemistry 2015, 23, 6486-6496,

MAO-B = test system: MAO-B; set-up: method as in PMID 32752896; conditions: cited from earlier work

inhibition at 10 µM [1]	melting point	SMILES	further results
2.39 ± 0.31%		O=C(Nc1ccc2[nH]ccc2c1)c1ccccc1Cl [3o, 2-Chloro-N-(1H-indol-5-yl)benzamide]	
1.49 ± 0.26%	153 to 154 °C	O=C(Nc1ccc2[nH]ccc2c1)c1ccc(F)cc1C(F)(F)F [3l, 4-Fluoro-N-(1H-indol-5-yl)-2-(trifluoromethyl)benzamide]	
		C#CCN[C@@H]1CCc2ccccc21 [rasagiline, reference compound]	Selectivity Index (SI) [1]: > 50
22.9 ± 0.7%	161 to 162 °C	O=C(Nc1ccc2[nH]ccc2c1)c1ccc(Cl)cc1Cl [3d, 2,4-Dichloro-N-(1H-indol-5-yl)benzamide]	
0.89 ± 0.31%	221 to 223 °C	O=C(Nc1ccc2[nH]ccc2c1)c1c(Cl)cccc1Cl [3x, 2,6-Dichloro-N-(1H-indol-5-yl)benzamide]	
63.23 ± 0.45%	195 to 196 °C	O=C(Nc1ccc2[nH]ccc2c1)c1ccc(OC(F)(F)F)cc1 [3t, N-(1H-indol-5-yl)-4-(trifluoromethoxy)benzamide]	
54.25 ± 0.37%	214 to 215 °C	O=C(Nc1ccc2[nH]ccc2c1)c1cccc([N+](=O)[O-])c1 [3f, N-(1H-indol-5-yl)-3-nitrobenzamide]	
37.1 ± 0.7%	209 to 210 °C	O=C(Nc1ccc2[nH]ccc2c1)c1ccc(Br)cc1 [3c, 4-Bromo-N-(1H-indol-5-yl)benzamide]	
85.12 ± 0.22%	148 to 150 °C	O=C(Nc1ccc2[nH]ccc2c1)c1cccc(C(F)(F)F)c1 [3u, N-(1H-indol-5-yl)-3-(trifluoromethyl)benzamide]	Selectivity Index (SI) [1]: >83; IC50 [1]: 1200 nM; IC50 [2]: > 100 µM
50.01 ± 0.04%	189 to 190 °C	CC(C)(C)c1ccc(C(=O)Nc2ccc3[nH]ccc3c2)cc1 [3q, 4-(Tert-butyl)-N-(1H-indol-5-yl)benzamide]	
8.33 ± 0.59%	188 to 189 °C	N#Cc1cccc(C(=O)Nc2ccc3[nH]ccc3c2)c1 [3m, 3-Cyano-N-(1H-indol-5-yl)benzamide]	
57.98 ± 0.07%		O=C(Nc1ccc2[nH]ccc2c1)c1ccc(Cl)cc1 [3p, 4-Chloro-N-(1H-indol-5-yl)benzamide]	
72.63 ± 0.32%	199 to 201 °C	O=C(Nc1ccc2[nH]ccc2c1)c1cc(Cl)cc(Cl)c1 [3w, 3,5-Dichloro-N-(1H-indol-5-yl)benzamide]	Selectivity Index (SI) [1]: >41; IC50 [1]: 2410 nM; IC50 [2]: > 100 µM
61 ± 0.69%	262 to 264 °C	O=C(Nc1ccc2[nH]ccc2c1)c1ccc([N+](=O)[O-])cc1 [3g, N-(1H-indol-5-yl)-4-nitrobenzamide]	
91.22 ± 0.11%	206 to 207 °C	O=C(Nc1ccc2[nH]ccc2c1)c1ccc(C(F)(F)F)cc1 [3v, N-(1H-indol-5-yl)-4-(trifluoromethyl)benzamide]	Selectivity Index (SI) [1]: >151; IC50 [1]: 660 nM; IC50 [2]: > 100 µM
35.3 ± 0.76%	166 to 168 °C	O=C(Nc1ccc2[nH]ccc2c1)c1cccc(F)c1 [3i, 3-Fluoro-N-(1H-indol-5-yl)benzamide]	
-0.02 ± 0.26%	236 to 237 °C	O=C(Nc1ccc2[nH]ccc2c1)c1c(F)cccc1F [3h, 2,6-Difluoro-N-(1H-indol-5-yl)benzamide]	
68.34 ± 0.25%	130 to 132 °C	O=C(Nc1ccc2[nH]ccc2c1)c1cccc(OC(F)(F)F)c1 [3s, N-(1H-indol-5-yl)-3-(trifluoromethoxy)benzamide]	
14.9 ± 0.8%		O=C(Nc1ccc2[nH]ccc2c1)c1ccccc1 [3a, N-(1H-indol-5-yl)benzamide]	
0.27 ± 0.81%	231 to 233 °C	O=C(Nc1ccc2[nH]ccc2c1)c1ccccc1Br [3b, 2-Bromo-N-(1H-indol-5-yl)benzamide]	
58.3 ± 1.02%		O=C(Nc1ccc2[nH]ccc2c1)c1ccc(F)cc1 [3j, 4-Fluoro-N-(1H-indol-5-yl)benzamide]	
		O=C(Nc1ccc2c(ccn2C(=O)c2cccc(F)c2)c1)c1cnccn1 [N-(1-(3-fluorobenzoyl)-1H-indol-5-yl)pyrazine-2-carboxamide]	IC50 (MAO-B): 780 nM; Ki (MAO-B; competitive): 94.5 nM
37.86 ± 0.33%	179 to 181 °C	O=C(Nc1ccc2[nH]ccc2c1)c1ccccc1F [3k, 2-Fluoro-N-(1H-indol-5-yl)benzamide]	

SMILES	inhibition at 10 µM [1]	melting point	further results
O=C(Nc1ccc2[nH]ccc2c1)c1cc([N+](=O)[O-])cc([N+](=O)[O-])c1 [3e, N-(1H-indol-5-yl)-3,5-dinitrobenzamide]	2.75 ± 0.2%		
